In US20130190487A1, “PROCESS FOR THE PREPARATION OF EZETIMIBE AND DERIVATIVES THEREOF” (KRKA, priority 2007, published 2013):
Values belong to the molecule of their own block, whether it stands above or below them.

Columns and labels:
Format in all cases: physicochemical
[1] = Water sorption/desorption on automatic water sorption analyzer DVS-1; details: 25° C.
Description: Anhydro form of ezetimibe was tested on the automatic water sorption analyzer DVS-1 (Surface Measurement Systems Ltd., London, GB) under the following conditions: • controlled room temperature (25° C.) • nitrogen flow 200 ml/min • two full cycles from 0% RH to 95% RH and back in eleven stages • minimal time per one stage (when dm/dt<0.002%) was 10 min • maximal time per one stage was 360 min.

[2] = Heating in Mettler HR73 Halogen Moisture Analyzer (LOD), then XRPD analysis
Description: Hydrated form H of ezetimibe (from Example 30) was heated in a Mettler HR73 Halogen Moisture Analyzer. […] In all cases anhydro form of ezetimibe resulted according to XRPD analysis.
Pure S form of ezetimibe (tert.-butanol solvate; from Example 32) was heated in a Mettler HR73 Halogen Moisture Analyzer at different temperatures for the time indicated and analyzed by XRPD.

[3] = Drying in a vacuum dryer, XRPD analysis; details: ambient temperature, cca. 100 mbar
Description: Hydrated form H of ezetimibe was dried in a vacuum dryer at an ambient temperature and a pressure of cca. 100 mbar. After 1 h anhydrous form already predominated (A>H), after 2 h it became the sole form according to XRPD analysis.

[4] = Drying in an air dryer, XRPD analysis
Description: Hydrated form H of ezetimibe was dried in an air dryer (RH was 35%) at two different temperatures.

- mass in the desorption cycle ([1]; at 20% RH): dropped sharply
- mass in the desorption cycle ([1]; down to 30% RH): not significantly changed
- water sorption, mass change at equilibrium ([1]; first cycle, 60% RH): 4.2%
- water sorption, total ([1]; first cycle, 95% RH): 4.4%
- absorption of water ([1]; first cycle, up to 50% RH): no significant absorption of water
- water sorption ([1]; second cycle, 50% RH): increased sharply
Compound: O=C1[C@H](CC[C@H](O)c2ccc(F)cc2)[C@@H](c2ccc(O)cc2)N1c1ccc(F)cc1 [Anhydro form of ezetimibe, 1-(4-fluorophenyl)-3(R)-[3-(4-fluorophenyl)-3(S)-hydroxypropyl]-4(S)-(4-hydroxyphenyl)-2-azetidinone]

- time to constant value of LOD ([2]; 50° C.): 11.5 min
- time to constant value of LOD ([2]; 60° C.): 6.5 min
- time to constant value of LOD ([2]; 70° C.): 4.5 min
- resulting form according to XRPD analysis ([2]; after heating at 50, 60 or 70° C. to constant LOD): anhydro form
- Constant value of LOD ([2]; heated at 50° C., 60° C. or 70° C.): −4.5%
- form according to XRPD analysis ([3]; after 1 h): A>H
- form according to XRPD analysis ([3]; after 2 h): sole form
- form detected according to XRPD analysis ([4]; air dryer, RH 35%, 40° C., after 1 h): only anhydro form
- temperature at which converted to anhydrous form A ([4]; upon drying): about 40 °C
Compound: O=C1[C@H](CC[C@H](O)c2ccc(F)cc2)[C@@H](c2ccc(O)cc2)N1c1ccc(F)cc1 [Hydrated form H of ezetimibe, 1-(4-fluorophenyl)-3(R)-[3-(4-fluorophenyl)-3(S)-hydroxypropyl]-4(S)-(4-hydroxyphenyl)-2-azetidinone]

- stability upon drying [2]: stable upon drying
- LOD (%) ([2]; 50 ° C., 14 min): −0.83%
- LOD (%) ([2]; 60 ° C., 10.5 min): −1.10%
- LOD (%) ([2]; 70 ° C., 9 min): −2.34%
- LOD (%) ([2]; 130 ° C., 4.5 min): −12.0%
- loss of drying ([2]; temperature of about 70° C.): only minimal loss of drying
Compound: O=C1[C@H](CC[C@H](O)c2ccc(F)cc2)[C@@H](c2ccc(O)cc2)N1c1ccc(F)cc1 [S form of ezetimibe, 1-(4-fluorophenyl)-3(R)-[3-(4-fluorophenyl)-3(S)-hydroxypropyl]-4(S)-(4-hydroxyphenyl)-2-azetidinone]
